# Values quoted from earlier work in patent US20140303128A1, “TRANSMUCOSAL HORMONE DELIVERY SYSTEM” (priority 2013, published 2014).
# Tests used:
# [1] = smoking a cigarette (WO 03/055486 A1)
# [2] = pH 6.8
structure (smiles),measurement,setting,value
CN1CCCC1c1cccnc1 (centres unmarked) [nicotine],time to peak of plasma nicotine levels,[1],about 10 minutes
same,nicotine in the free base form,[2],about 10%
